Measured values published in paper PMC3486420, “In Vitro and In Vivo Characterizations of Chiglitazar, a Newly Identified PPAR Pan-Agonist” (PPAR Research, 2012).

Assays:
[1] = system: RAW267.4 cells; test: Gene expression by RT-PCR in RAW267.4 cells; assay type: cell-based, mouse; conditions: 48 h, 10 μM chiglitazar
Description: cDNAs for human retinoid X receptor (hRXR), PPARα, PPARγ, and PPARδ were obtained by reverse transcriptase polymerase chain reaction (RT-PCR) from human liver or adipose tissues. Amplified cDNAs were cloned into pcDNA3.1 expression vector (Invitrogen, Carlsbad, CA, USA). The integrity and fidelity of all constructs made were verified by DNA sequencing. Luciferase reporter plasmids, ACOX promoter for PPARγ and pHD(X3)-luc for PPARα, were kind gifts of Drs. TM McIntyre (University of Utah, USA) and RA Rachubinski (University of Alberta, Canada), respectively. PPRE-luc for PPARδ was constructed based on the previous report by insertion of the annealed oligonucleotides having four copies of the CYP4A6 PPRE (4 × […]) into the upstream of the luciferase coding sequence in pGL3-promoter vector (Promega, Madison, WI, USA). pCMVβGal was purchased from Clontech (Palo Alto, CA, USA). The mouse 3T3-L1 preadipocyte cell line, skeletal muscle C2C12 cell line, and macrophage RAW267.4 cell line and the human osteosarcoma U2OS cell line were obtained from the American Type Culture Collection (ATCC, Rockville, MD, USA). The human hepatoma SMMC-7721 cell line was obtained from the Cell Culture Center of Chinese Academy of Medical Sciences (Beijing, China). Cell lines were cultured in medium of DMEM (3T3-L1, C2C12, and SMMC-7721), RPMI 1640 (RAW267.4), or McCoy's 5A (U2OS), containing 10% fetal bovine serum (FBS), 50 μg/mL streptomycin, and 50 units/mL penicillin at 37°C in a humidified incubator with 5% CO2.
(§1) Total RNA was extracted from cells or tissues with an RNeasy minikit (Qiagen, Valencia, CA, USA). The first-strand cDNA was synthesized using the oligo(dT) primers, followed by using SuperScript II reverse transcriptase (Invitrogen) according to the manufacturer's instructions. The PCR amplifications were performed in 10 μL of reaction mixture volume containing 0.8 μL of cDNA, 10 mM Tris-HCl (pH 8.3), 50 mM KCl, 1.5 mM MgCl2, 0.1% Triton X-100, 0.2 mM deoxynucleotide triphosphates, 0.4 μM primers, and 0.25 U of Taq polymerase (TaKaRa Biotechnology Co., Ltd, China). Taq DNA polymerase was added to each tube after a treatment of 2 min at 94°C. This was followed by 22–30 cycles of denaturation (23 s at 94°C), annealing (20 s at 55°C), extension (30 s at 72°C), and a final extension step of 2 min. PCR products were analyzed by electrophoresis on a 1.5% agarose gel stained with ethidium bromide.
Figure 1 In vitro regulation of gene expression by chiglitazar. (a) Endogenous expression of individual PPAR subtypes in cell lines. […]. The expression change of referred genes induced by different compounds was normalized against internal control (36B4 or GAPDH) and then compared with vehicle control treatment. The data shown are averaged from 3 independent experiments.

[2] = system: KKAy mice; test: Gene expression by RT-PCR in tissues of treated KKAy mice; assay type: in vivo, mouse; conditions: 12 days oral
Procedure: as §1
Male db/db mice (BKS.Cg-m +/+ LEPR^db) in 6-7 weeks were purchased from The Jackson Laboratory (Bar Harbor, ME, USA). Male KKAy and C57BL/6J mice in 8–10 weeks were obtained from the Institute of Animal Science, Chinese Academy of Medical Sciences and Peking Union Medical College (Beijing, China). Animals were randomly sorted into different treatment groups (8–10 per group). […]. Plasma glucose levels were examined at various time points by Accu-Chek Advantage II Glucose Strips (Roche Diagnostics, Basel, Switzerland) and measured by Accu-Chek Advantage (Roche Diagnostics). Animals were sacrificed 24 h after the last dosing and abdominal fat pad, liver, and skeletal muscle from KKAy mice and abdominal fat pad from db/db mice were taken for gene expression analysis.
Figure 3 In vivo regulation of gene expression by chiglitazar. […]. Equal amount of total RNA from each mouse in the same group was mixed and subjected to RT-PCR analysis for the indicated genes. […]. Total RNA was isolated from individual animal tissues and subjected to the RT-PCR analysis independently for the indicated genes.

[3] = system: beagle dogs; test: Heart weight in beagle dogs, chronic treatment; assay type: in vivo, dog; conditions: same regime (6 months), 54 mg kg^−1 (~1000 mg/m^2), data not shown
[4] = Tissue distribution of 3H-chiglitazar in rats; assay type: in vivo, rat; conditions: male Wistar rats, single oral dose 12.5 mg kg^−1 3H-labelled, radioactivity AUC0–24
Procedure: ^3H-chiglitazar was synthesized and provided by the Beijing Institute of Atom Energy with specific activity of 15 Ci mmol^−1 and purity >97%. Tissue distribution of ^3H-chiglitazar in rats was evaluated based on the methods described previously. Briefly, male Wistar rats (~220 g in body weight, 12-week old) were randomly divided into 4 groups (5 per group). After fasted overnight, rats were orally administered with single dose of 12.5 mg kg^−1 of ^3H-chiglitazar (radiation dose 31.7 MBq kg^−1). Rats in different groups were sacrificed at 1.5, 4, 8, and 24 h after dosing. Blood (5–9 mL) was collected via cardiac puncture at the time of sacrifice. […] 1 mL of scintillation fluid was added to each well, and radioactivity was measured by a scintillation counter (Perkin Elmer, Waltham, MA, USA).
Figure 5 Influence on heart weight and tissue distribution of chiglitazar in rats. […] 24 h after the last dosing, animals were sacrificed and the heart weight was evaluated. *P < 0.05 compared with control; n = 5 per group. […] Rats were sacrificed at 1.5, 4, 8, and 24 h after treatment (n = 5 per time point), and various tissues/organs as indicated were taken for radioactivity measurement. The accumulated area under curves through 0 to 24 h (AUC0–24) was calculated based on individual tissue distribution measured at each time point. […] Data are expressed as mean ± SE.

[5] = chiglitazar 20 mg kg^−1, rosiglitazone 5 mg kg^−1

Q: For `O=C(c1ccc(F)cc1)c1ccccc1NC(Cc1ccc(OCCn2c3ccccc3c3ccccc32)cc1)C(=O)O` (stereo not drawn) [Chi, 2-[(2-(4-fluorobenzoyl)phenyl)amino]-3-[4-(2-carbazolylethoxy)-phenyl]-propionic acid], which “Expression of PPARα and/or PPARδ downstream gene SRA” value ([1]; 50 μM WY14643, 5 μM 2-Bro, compared with rosiglitazone 10 μM) is on record?
A: more significantly upregulated

Q: And the “Expression of PPARγ downstream gene CD36” value ([1]; 10 μM rosiglitazone, vs vehicle)?
A: upregulated

Q: What about the “Expression of ACADL, HSL, GLUT4 and PPARγ in liver and skeletal muscle” value [2, 5] of the same molecule?
A: not affected

Q: What about the “Expression of genes involved in PPARγ-mediated insulin sensitization in adipose tissue” value [2, 5] of the same molecule?
A: almost identically up-regulated

Q: What about the “Expression of PPARα and VLCS in adipose tissue” value ([2]; chiglitazar 20 mg kg^−1 compared with rosiglitazone 5 mg kg^−1) of the same molecule?
A: greater degree of upregulation

Q: What about the “Expression of leptin and SREBP1 in liver and skeletal muscle” value ([2]; chiglitazar 20 mg kg^−1 vs rosiglitazone 5 mg kg^−1) of the same molecule?
A: more upregulated

Q: What about the Heart weight [3] of the same molecule?
A: did not induce significant increase

Q: And the “Tissue distribution: level in kidney, adipose tissue and heart” value [4]?
A: low levels

Q: And the “Tissue distribution: level in plasma, liver and pancreas” value [4]?
A: high levels
